We go through one compound from paper PMC4703110 (Journal of chemical information and modeling, 2015).

This assay deals with human μ-opioid receptor (Homo sapiens, UniProt P35372). Type of assay: cell-based. The conditions noted are these: read-out: EC50, μM (PAM mode).
Chain of human μ-opioid receptor (P35372 whole entry): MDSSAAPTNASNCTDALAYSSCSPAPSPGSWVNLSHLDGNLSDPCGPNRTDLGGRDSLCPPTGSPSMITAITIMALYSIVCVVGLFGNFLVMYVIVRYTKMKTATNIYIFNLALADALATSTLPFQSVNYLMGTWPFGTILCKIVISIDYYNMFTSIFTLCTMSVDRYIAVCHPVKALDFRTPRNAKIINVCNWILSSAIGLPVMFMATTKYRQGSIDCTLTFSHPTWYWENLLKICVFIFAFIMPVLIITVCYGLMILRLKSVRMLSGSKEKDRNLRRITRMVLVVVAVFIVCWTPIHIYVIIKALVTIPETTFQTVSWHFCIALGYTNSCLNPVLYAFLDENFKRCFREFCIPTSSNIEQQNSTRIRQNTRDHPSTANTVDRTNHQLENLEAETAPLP

`COc1ccc(C2SCCN2S(=O)(=O)c2ccc(Cl)cc2)cc1Br` (stereo not shown) [BMS-986122]: the EC50 was determined as 16.2 µM.

The term EC50 denotes the concentration giving half of the maximal effect.
